Organism: Rattus norvegicus
Assay: DrugMatrix - Regimen: Daily Repeat
Format: toxicity, organism-based, Sprague-Dawley
Parameters: regimen Daily Repeat, gender Male, age 6-8 weeks
Details: in vivo, po, route oral GAVAGE, vehicle .5 % CMC; for ABSOLUTE BASOPHIL / ABSOLUTE EOSINOPHIL / ABSOLUTE LYMPHOCYTE / ABSOLUTE MONOCYTE / ABSOLUTE SEGMENTED NEUTROPHIL / BASOPHIL / EOSINOPHIL / ERYTHROCYTE COUNT / HEMATOCRIT / HEMOGLOBIN / LEUKOCYTE COUNT / LYMPHOCYTE / MEAN CORPUSCULAR HEMOGLOBIN / MEAN CORPUSCULAR HEMOGLOBIN CONCENTRATION / MEAN CORPUSCULAR VOLUME / MONOCYTE / NEUTROPHIL / NUCLEATED RED BLOOD CELLS / PLATELET COUNT: tissue Blood; for ALANINE AMINOTRANSFERASE / ALBUMIN / ALKALINE PHOSPHATASE / ASPARTATE AMINOTRANSFERASE / BLOOD UREA NITROGEN / CARBON DIOXIDE / CHLORIDE / CHOLESTEROL / CREATINE PHOSPHOKINASE / CREATININE / GLUCOSE / LACTATE DEHYDROGENASE / LIPASE / PHOSPHORUS / POTASSIUM / SODIUM / TOTAL BILIRUBIN / TOTAL PROTEIN / URIC ACID: tissue Plasma
[1] = 10 mg/kg, 72 h, dose level Low, time 3 day
[2] = 10 mg/kg, 120 h, dose level Low, time 5 day
[3] = 1750 mg/kg, 72 h, dose level High, time 3 day
[4] = 1750 mg/kg, 120 h, dose level High, time 5 day

`CCOC(=O)[C@H](CCc1ccccc1)N[C@H]1CCc2ccccc2N(CC(=O)O)C1=O` [BENAZEPRIL] was tested, and the “ABSOLUTE BASOPHIL” value [1] was 0 CELLS/uL, the “ABSOLUTE EOSINOPHIL” value [1] was 0 CELLS/uL and the “ABSOLUTE LYMPHOCYTE” value [1] was 8474.33 CELLS/uL. For the same compound, the “ABSOLUTE MONOCYTE” value [1] was 40.67 CELLS/uL, the “ABSOLUTE SEGMENTED NEUTROPHIL” value [1] was 418.33 CELLS/uL and the BASOPHIL [1] was 0%. For the same compound, the EOSINOPHIL [1] was 0%, the “ERYTHROCYTE COUNT” value [1] was 5.44 x10E6/uL and the HEMATOCRIT [1] was 35.27%. The HEMOGLOBIN [1] was 14.3 G/DL, the “LEUKOCYTE COUNT” value [1] was 8.93 x10E3/uL and the LYMPHOCYTE [1] was 94.33%. The “MEAN CORPUSCULAR HEMOGLOBIN” value [1] was 26.27 pg, the “MEAN CORPUSCULAR HEMOGLOBIN CONCENTRATION” value [1] was 40.53 G/DL and the “MEAN CORPUSCULAR VOLUME” value [1] was 64.8 fL. For the same compound, the MONOCYTE [1] was 0.67%, the NEUTROPHIL [1] was 5% and the “NUCLEATED RED BLOOD CELLS” value [1] was 0 /100WBC. For the same compound, the “PLATELET COUNT” value [1] was 1050 x10E3/uL, the “ALANINE AMINOTRANSFERASE” value [1] was 47.33 u/L and the ALBUMIN [1] was 4.6 G/DL. The “ALKALINE PHOSPHATASE” value [1] was 428.33 u/L, the “ASPARTATE AMINOTRANSFERASE” value [1] was 84.67 u/L and the “BLOOD UREA NITROGEN” value [1] was 18 mg/dL. The “CARBON DIOXIDE” value [1] was 34.33 mmol/L, the CHLORIDE [1] was 99 MEQ/L and the CHOLESTEROL [1] was 78.67 mg/dL. For the same compound, the “CREATINE PHOSPHOKINASE” value [1] was 322 u/L, the CREATININE [1] was 0.22 mg/dL and the GLUCOSE [1] was 135.33 mg/dL. For the same compound, the “LACTATE DEHYDROGENASE” value [1] was 124.67 u/L, the LIPASE [1] was 10 u/L and the PHOSPHORUS [1] was 10.63 mg/dL. For the same compound, the POTASSIUM [1] was 6.53 MEQ/L, the SODIUM [1] was 145.23 MEQ/L and the “TOTAL BILIRUBIN” value [1] was 0.2 mg/dL. For the same compound, the “TOTAL PROTEIN” value [1] was 6.57 G/DL, the “URIC ACID” value [1] was 0.83 mg/dL and the “ABSOLUTE BASOPHIL” value [2] was 0 CELLS/uL. The “ABSOLUTE EOSINOPHIL” value [2] was 90 CELLS/uL, the “ABSOLUTE LYMPHOCYTE” value [2] was 12851.33 CELLS/uL and the “ABSOLUTE MONOCYTE” value [2] was 265.67 CELLS/uL. For the same compound, the “ABSOLUTE SEGMENTED NEUTROPHIL” value [2] was 1459.67 CELLS/uL, the BASOPHIL [2] was 0% and the EOSINOPHIL [2] was 0.67%. The “ERYTHROCYTE COUNT” value [2] was 5.31 x10E6/uL, the HEMATOCRIT [2] was 33.43% and the HEMOGLOBIN [2] was 13.47 G/DL. For the same compound, the “LEUKOCYTE COUNT” value [2] was 14.67 x10E3/uL, the LYMPHOCYTE [2] was 88% and the “MEAN CORPUSCULAR HEMOGLOBIN” value [2] was 25.33 pg. The “MEAN CORPUSCULAR HEMOGLOBIN CONCENTRATION” value [2] was 40.27 G/DL, the “MEAN CORPUSCULAR VOLUME” value [2] was 62.9 fL and the MONOCYTE [2] was 2%. For the same compound, the NEUTROPHIL [2] was 9.33%, the “NUCLEATED RED BLOOD CELLS” value [2] was 0 /100WBC and the “PLATELET COUNT” value [2] was 1304.67 x10E3/uL. For the same compound, the “ALANINE AMINOTRANSFERASE” value [2] was 52.67 u/L, the ALBUMIN [2] was 4.2 G/DL and the “ALKALINE PHOSPHATASE” value [2] was 304.33 u/L. For the same compound, the “ASPARTATE AMINOTRANSFERASE” value [2] was 76 u/L, the “BLOOD UREA NITROGEN” value [2] was 18 mg/dL and the “CARBON DIOXIDE” value [2] was 32 mmol/L. The CHLORIDE [2] was 102 MEQ/L, the CHOLESTEROL [2] was 73.67 mg/dL and the “CREATINE PHOSPHOKINASE” value [2] was 234.67 u/L. For the same compound, the CREATININE [2] was 0.15 mg/dL, the GLUCOSE [2] was 160.67 mg/dL and the “LACTATE DEHYDROGENASE” value [2] was 106.67 u/L. For the same compound, the LIPASE [2] was 9 u/L, the PHOSPHORUS [2] was 13.27 mg/dL and the POTASSIUM [2] was 7.06 MEQ/L. The SODIUM [2] was 144.9 MEQ/L, the “TOTAL BILIRUBIN” value [2] was 0.2 mg/dL and the “TOTAL PROTEIN” value [2] was 6.27 G/DL. For the same compound, the “URIC ACID” value [2] was 1.57 mg/dL, the “ABSOLUTE BASOPHIL” value [3] was 0 CELLS/uL and the “ABSOLUTE EOSINOPHIL” value [3] was 139.33 CELLS/uL. The “ABSOLUTE LYMPHOCYTE” value [3] was 16004 CELLS/uL, the “ABSOLUTE MONOCYTE” value [3] was 0 CELLS/uL and the “ABSOLUTE SEGMENTED NEUTROPHIL” value [3] was 1823.33 CELLS/uL. The BASOPHIL [3] was 0%, the EOSINOPHIL [3] was 0.67% and the “ERYTHROCYTE COUNT” value [3] was 5.02 x10E6/uL. For the same compound, the HEMATOCRIT [3] was 32.27%, the HEMOGLOBIN [3] was 13.23 G/DL and the “LEUKOCYTE COUNT” value [3] was 17.97 x10E3/uL. The LYMPHOCYTE [3] was 89.33%, the “MEAN CORPUSCULAR HEMOGLOBIN” value [3] was 26.43 pg and the “MEAN CORPUSCULAR HEMOGLOBIN CONCENTRATION” value [3] was 41.03 G/DL. The “MEAN CORPUSCULAR VOLUME” value [3] was 64.37 fL, the MONOCYTE [3] was 0% and the NEUTROPHIL [3] was 10%. For the same compound, the “NUCLEATED RED BLOOD CELLS” value [3] was 0 /100WBC, the “PLATELET COUNT” value [3] was 1175.67 x10E3/uL and the “ALANINE AMINOTRANSFERASE” value [3] was 47.67 u/L. For the same compound, the ALBUMIN [3] was 4.13 G/DL, the “ALKALINE PHOSPHATASE” value [3] was 388 u/L and the “ASPARTATE AMINOTRANSFERASE” value [3] was 83.33 u/L. The “BLOOD UREA NITROGEN” value [3] was 23.67 mg/dL, the “CARBON DIOXIDE” value [3] was 28.33 mmol/L and the CHLORIDE [3] was 101 MEQ/L. For the same compound, the CHOLESTEROL [3] was 63.67 mg/dL, the “CREATINE PHOSPHOKINASE” value [3] was 244.67 u/L and the CREATININE [3] was 0.24 mg/dL. For the same compound, the GLUCOSE [3] was 152.33 mg/dL, the “LACTATE DEHYDROGENASE” value [3] was 297.33 u/L and the LIPASE [3] was 9.33 u/L. The PHOSPHORUS [3] was 11.27 mg/dL, the POTASSIUM [3] was 7.42 MEQ/L and the SODIUM [3] was 140.93 MEQ/L. For the same compound, the “TOTAL BILIRUBIN” value [3] was 0.23 mg/dL, the “TOTAL PROTEIN” value [3] was 5.73 G/DL and the “URIC ACID” value [3] was 1.73 mg/dL. The “ABSOLUTE BASOPHIL” value [4] was 0 CELLS/uL, the “ABSOLUTE EOSINOPHIL” value [4] was 0 CELLS/uL and the “ABSOLUTE LYMPHOCYTE” value [4] was 16017 CELLS/uL. The “ABSOLUTE MONOCYTE” value [4] was 660 CELLS/uL, the “ABSOLUTE SEGMENTED NEUTROPHIL” value [4] was 1423 CELLS/uL and the BASOPHIL [4] was 0%. For the same compound, the EOSINOPHIL [4] was 0%, the “ERYTHROCYTE COUNT” value [4] was 5.54 x10E6/uL and the HEMATOCRIT [4] was 33.43%. The HEMOGLOBIN [4] was 13.43 G/DL, the “LEUKOCYTE COUNT” value [4] was 18.1 x10E3/uL and the LYMPHOCYTE [4] was 89.33%. The “MEAN CORPUSCULAR HEMOGLOBIN” value [4] was 24.3 pg, the “MEAN CORPUSCULAR HEMOGLOBIN CONCENTRATION” value [4] was 40.2 G/DL and the “MEAN CORPUSCULAR VOLUME” value [4] was 60.5 fL. The MONOCYTE [4] was 3.67%, the NEUTROPHIL [4] was 7% and the “NUCLEATED RED BLOOD CELLS” value [4] was 0.33 /100WBC. The “PLATELET COUNT” value [4] was 1330 x10E3/uL, the “ALANINE AMINOTRANSFERASE” value [4] was 49.67 u/L and the ALBUMIN [4] was 4.03 G/DL. For the same compound, the “ALKALINE PHOSPHATASE” value [4] was 380.33 u/L, the “ASPARTATE AMINOTRANSFERASE” value [4] was 85.33 u/L and the “BLOOD UREA NITROGEN” value [4] was 44 mg/dL. For the same compound, the “CARBON DIOXIDE” value [4] was 30 mmol/L, the CHLORIDE [4] was 104.33 MEQ/L and the CHOLESTEROL [4] was 74.67 mg/dL. For the same compound, the “CREATINE PHOSPHOKINASE” value [4] was 585 u/L, the CREATININE [4] was 0.27 mg/dL and the GLUCOSE [4] was 150.67 mg/dL. The “LACTATE DEHYDROGENASE” value [4] was 227 u/L, the LIPASE [4] was 9.33 u/L and the PHOSPHORUS [4] was 10.53 mg/dL. For the same compound, the POTASSIUM [4] was 6.39 MEQ/L, the SODIUM [4] was 143.17 MEQ/L and the “TOTAL BILIRUBIN” value [4] was 0.2 mg/dL. The “TOTAL PROTEIN” value [4] was 6 G/DL and the “URIC ACID” value [4] was 1.53 mg/dL.
